Measurements: article PMC11352370, “Live Cell Monitoring of Phosphodiesterase Inhibition by Sulfonylurea Drugs” (Biomolecules, 2024)

System: T1, PDE3B
T1 construct: Epac2-camps-PDE3B fusion biosensor
Assay: live-cell FRET with Epac-camps/PDE3B fusion biosensors in HEK293a cells
Format: cell-based

CCCCNC(=O)NS(=O)(=O)c1ccc(C)cc1 [TOL, tolbutamide]
IC50: ~700 µM
